In series [1] the test system is CCRF-CEM. In words: In vitro anti -HIV activity of compound determined against the LAV Bru infected CEM cells; Highly cytotoxic at low dose. It is filed as functional, Homo sapiens.
For series [2], the system named is CCRF-CEM. In words: In vitro anti -HIV activity of compound determined against the LAV Bru strain infected CEM cells at dose up to 100 uM. It is filed as functional, Homo sapiens.
Series [3] in a line: Tested for bone marrow cell toxicity expressed as colony forming unit of granulocyte -macrophage at a compound concentration of 100 mM in experiment-2. It is filed as cell-based. The note with it: human.
Series [4] concerns Mus musculus. The experiment in a line: Effect of compound on Friend Complex Murine Leukemia Virus (F-MuLV) induced splenomegaly, expressed as percent inhibition at a dose of 4 mg/kg. It is filed as functional.
Series [5] in a line: Tested for bone marrow cell toxicity expressed as burst forming unit for erythrocyte at a compound concentration of 10 mM in experiment-2. It is filed as cell-based. The note with it: human.
A short description of series [6]: Tested for bone marrow cell toxicity expressed as colony forming unit of granulocyte -macrophage at a compound concentration of 1 mM in experiment-2. It counts as cell-based. The note with it: human, 1000 µM.
Series [7] in a line: Tested for bone marrow cell toxicity expressed as colony forming unit of granulocyte -macrophage at a compound concentration of 36/30 mM in experiment-2. It is filed as cell-based. The note with it: human.
Series [8] is described as follows: Tested for bone marrow cell toxicity expressed as burst forming unit for erythrocyte at a compound concentration of 3.6/3 mM in experiment-2. It is filed as cell-based. The following applies: human.
The nature of series [9]: Tested for bone marrow cell toxicity expressed as burst forming unit for erythrocyte at a compound concentration of 0.036 mM in experiment-2. It counts as cell-based. The note with it: human, 36 µM.
A short description of series [10]: Tested for bone marrow cell toxicity expressed as colony forming unit of granulocyte -macrophage at a compound concentration of 0.36 mM in experiment-1. It counts as cell-based. The following applies: human, 360 µM.
The nature of series [11]: Tested for bone marrow cell toxicity expressed as colony forming unit of granulocyte -macrophage at a compound concentration of 36/30 mM in experiment-1. The note with it: human. It counts as cell-based.
Series [12] in a line: Tested for bone marrow cell toxicity expressed as burst forming unit for erythrocyte at a compound concentration of 100 mM in experiment-2. It counts as cell-based. The note with it: human.
Series [13] in a line: Tested for bone marrow cell toxicity expressed as burst forming unit for erythrocyte at a compound concentration of 0.036 mM in experiment-1. It is filed as cell-based. The note with it: human, 36 µM.
Series [14] can be described thus: Tested for bone marrow cell toxicity expressed as burst forming unit for erythrocyte at a compound concentration of 1 mM in experiment-2. It is filed as cell-based. The note with it: human, 1000 µM.
Series [15] is described as follows: Tested for bone marrow cell toxicity expressed as burst forming unit for erythrocyte at a compound concentration of 3.6/3 mM in experiment-1. The following applies: human. It is filed as cell-based.
Series [16] in a line: Tested for bone marrow cell toxicity expressed as colony forming unit of granulocyte -macrophage at a compound concentration of 3.6/30 mM in experiment-1. It is filed as cell-based. The note with it: human.
Series [17] in a line: Tested for bone marrow cell toxicity expressed as burst forming unit for erythrocyte at a compound concentration of 36/30 mM in experiment-2. It is filed as cell-based. The note with it: human.
Series [18] concerns Mus musculus. In words: Effect of compound on Friend Complex Murine Leukemia Virus (F-MuLV) induced splenomegaly, expressed as percent inhibition at a dose of 40 mg/kg. It counts as functional.
Series [19] can be described thus: Tested for bone marrow cell toxicity expressed as burst forming unit for erythrocyte at a compound concentration of 36/30 mM in experiment-1. It is filed as cell-based. The following applies: human.
The test system of series [20] is Mus musculus. In words: Effect of compound on Friend Complex Murine Leukemia Virus (F-MuLV) induced splenomegaly, spleen weights at a dose of 4 mg/kg. It is filed as functional.
Series [21] deals with Mus musculus. The experiment in a line: Effect of compound on Friend Complex Murine Leukemia Virus (F-MuLV) induced splenomegaly, spleen weights at a dose of 12 mg/kg. It counts as functional.
Series [22] in a line: Tested for bone marrow cell toxicity expressed as colony forming unit of granulocyte -macrophage at a compound concentration of 0.036 mM in experiment-1. It counts as cell-based. The note with it: human, 36 µM.
Series [23] can be described thus: Tested for bone marrow cell toxicity expressed as burst forming unit for erythrocyte at a compound concentration of 0.36 mM in experiment-1. It is filed as cell-based. The note with it: human, 360 µM.
The nature of series [24]: Tested for bone marrow cell toxicity expressed as colony forming unit of granulocyte -macrophage at a compound concentration of 360 mM in experiment-1. It is filed as cell-based. The following applies: human.
Series [25] in a line: Tested for bone marrow cell toxicity expressed as colony forming unit of granulocyte -macrophage at a compound concentration of 10 mM in experiment-2. It is filed as cell-based. The following applies: human.
The nature of series [26]: Tested for bone marrow cell toxicity expressed as colony forming unit of granulocyte -macrophage at a compound concentration of 3.6/30 mM in experiment-2. The following applies: human. It counts as cell-based.
Series [27] can be described thus: Tested for bone marrow cell toxicity expressed as colony forming unit of granulocyte -macrophage at a compound concentration of 300 mM in experiment-1. It is filed as cell-based. The following applies: human.
Series [28] has as its system Mus musculus. In words: Effect of compound on Friend Complex Murine Leukemia Virus (F-MuLV) induced splenomegaly, spleen weights at a dose of 40 mg/kg. It counts as functional.
Series [29] relates to Mus musculus. The experiment in a line: Effect of compound on Friend Complex Murine Leukemia Virus (F-MuLV) induced splenomegaly, expressed as percent inhibition at a dose of 12 mg/kg. It is filed as functional.
Series [30] can be described thus: Tested for bone marrow cell toxicity expressed as burst forming unit for erythrocyte at a compound concentration of 360 mM in experiment-1. It is filed as cell-based. The note with it: human.
Series [31] can be described thus: Tested for bone marrow cell toxicity expressed as colony forming unit of granulocyte -macrophage at a compound concentration of 1 mM in experiment-1. It is filed as cell-based. The following applies: human, 1000 µM.
Series [32] can be described thus: Tested for bone marrow cell toxicity expressed as colony forming unit of granulocyte -macrophage at a compound concentration of 3 mM in experiment-1. The following applies: human, 3000 µM. It counts as cell-based.
Series [33] can be described thus: Tested for bone marrow cell toxicity expressed as burst forming unit for erythrocyte at a compound concentration of 30 mM in experiment-1. The following applies: human. It is filed as cell-based.
Series [34] is described as follows: Tested for bone marrow cell toxicity expressed as burst forming unit for erythrocyte at a compound concentration of 30 mM in experiment-2. It counts as cell-based. The note with it: human.
A short description of series [35]: Tested for bone marrow cell toxicity expressed as colony forming unit of granulocyte -macrophage at a compound concentration of 3 mM in experiment-2. It counts as cell-based. The note with it: human, 3000 µM.
Series [36] can be described thus: Tested for bone marrow cell toxicity expressed as colony forming unit of granulocyte -macrophage at a compound concentration of 100 mM in experiment-1. It counts as cell-based. The note with it: human.
Series [37] can be described thus: Tested for bone marrow cell toxicity expressed as burst forming unit for erythrocyte at a compound concentration of 100 mM in experiment-1. The following applies: human. It counts as cell-based.
Series [38] can be described thus: Tested for bone marrow cell toxicity expressed as burst forming unit for erythrocyte at a compound concentration of 3 mM in experiment-1. It is filed as cell-based. The note with it: human, 3000 µM.
The nature of series [39]: Tested for bone marrow cell toxicity expressed as burst forming unit for erythrocyte at a compound concentration of 1 mM in experiment-1. It is filed as cell-based. The note with it: human, 1000 µM.
The nature of series [40]: Tested for bone marrow cell toxicity expressed as colony forming unit of granulocyte -macrophage at a compound concentration of 30 mM in experiment-2. The note with it: human. It counts as cell-based.
Series [41] is described as follows: Tested for bone marrow cell toxicity expressed as burst forming unit for erythrocyte at a compound concentration of 10 mM in experiment-1. It counts as cell-based. The note with it: human.
Series [42] can be described thus: Tested for bone marrow cell toxicity expressed as burst forming unit for erythrocyte at a compound concentration of 3 mM in experiment-2. It counts as cell-based. The following applies: human, 3000 µM.
Series [43] in a line: Tested for bone marrow cell toxicity expressed as colony forming unit of granulocyte -macrophage at a compound concentration of 0.3 mM in experiment-2. The following applies: human, 300 µM. It counts as cell-based.
A short description of series [44]: Tested for bone marrow cell toxicity expressed as colony forming unit of granulocyte -macrophage at a compound concentration of 10 mM in experiment-1. It is filed as cell-based. The note with it: human.
Series [45] is described as follows: Tested for bone marrow cell toxicity expressed as burst forming unit for erythrocyte at a compound concentration of 0.3 mM in experiment-2. It is filed as cell-based. The following applies: human, 300 µM.

Molecules are shown by their SMILES.

Turning to `Cc1cn(C2CC(F)C(CO)O2)c(=O)n(N)c1=O` (stereo unspecified), in the series with CCRF-CEM [1], the Activity was found to be 0.1 µM.
Consider `Cc1cn(C2C=CC(CO)O2)c(=O)n(N)c1=O` (stereo unspecified), for which the Activity in the series with CCRF-CEM [2] is 40 µM.
For the compound `Cc1cn(C2CC(N=[N+]=[N-])C(CO)O2)c(=O)n(N)c1=O` (stereo unspecified), the CFU in [3] is recorded as 9.3; in [6] it was 12.3; in [7] it was 11.3; in series [10] it was 31.3; in [11] it was 28.3; in series [16] it was 31.3. Besides, the CFU is reported as 48.3 in series [22]; 0.7 in series [24]; 10 in series [25]; 14 in series [26]; 0.3 in [27]. At 4 mg/kg the inhibition in vivo in the series on Mus musculus [4] was 28%. Further, the BFU in [5] is on record as 170; in series [8], 218; in series [9] it was 10; in series [12] it was 158; in series [13], 94; in [14], 249. Besides, the BFU in [15] came to 140; in series [17] it was 198; in [19], 98; in series [23] it was 142; in series [30], 111. Moreover, the inhibition in vivo (usually the percentage by which the read-out fell short of the control) at 40 mg/kg in the series with Mus musculus [18] is 55%. The figures for the Spleen weight with Mus musculus [20], in the series on Mus musculus [21] and in the series with Mus musculus [28] were 907 mg, 715 mg and 607 mg, respectively. In the series on Mus musculus [29], testing at 12 mg/kg gave an inhibition in vivo of 46%.
For the compound `Cc1cn([C@H]2C[C@H](F)[C@@H](CO)O2)c(=O)[nH]c1=O` [ALOVUDINE], in the series on CCRF-CEM [1], the Activity is 0.1 µM.
For `Cc1cn([C@H]2C[C@H](N=[N+]=[N-])[C@@H](CO)O2)c(=O)[nH]c1=O` [ZIDOVUDINE], the inhibition in vivo at 4 mg/kg with Mus musculus [4] stood at 46%. The CFU in series [31] was 33.4; in series [32], 18.7; in series [35], 4.5; in series [36], 1; in series [6] it was 4.7; in series [40], 0. In addition, the CFU in series [43] is recorded as 10.7; in series [44] it was 4.3; in [25], 1. The BFU in series [33] is given as 46; in series [34] it was 59; in series [5], 79; in series [37], 4; in series [14], 132; in series [38] it was 88. For the same compound, the BFU in [39] turned out to be 120; in series [41] it was 76; in series [42] it was 79; in [45], 143. For the same compound, the inhibition in vivo at 40 mg/kg with Mus musculus [18] worked out at 78%. The Spleen weight with Mus musculus [20] is recorded as 706 mg; in the series with Mus musculus [21], 669 mg; in the series with Mus musculus [28] it was 357 mg. This compound gave an inhibition in vivo at 12 mg/kg in the series on Mus musculus [29] of 50%.

Source of the values: ChEMBL document CHEMBL1151484, “Preparation and anti-HIV activity of N-3 amino substituted thymidine nucleoside analogs” (Bioorg Med Chem Lett, 1992).
